Laboratory results taken from patent US10570179B2, “Substituted urea depsipeptide analogs as activators of the CLPP endopeptidase” (priority 2016, dated 2020).
Values after ≈ are worked out from the molar mass of the structure shown. Where two headings read alike, the source gives them in different places. Numbered stars: 1 amine (or outer) side, 2 acyl side, 3 side chain; on linkers, the order of the positions; unused ones are H or OH. Bridge positions count the residues as written; N and C are the ends. Square brackets hold non-standard residues; d marks the D form. Peptide text beside a SMILES is read from it. * marks the point of attachment. Piperazine(2S-CO,4-Me) = CN1CCN[C@H](C(=O)O)C1; Phe(3,5-F2) = N[C@@H](Cc1cc(F)cc(F)c1)C(=O)O; Phe(3-Me) = Cc1cccc(C[C@H](N)C(=O)O)c1; NH(4-Cl-2-F-phenyl) = Fc1cc(Cl)ccc1N*; Pro(4R-Me) = C[C@H]1CN[C@H](C(=O)O)C1; Propanoyl(3-NMe2) = CN(C)CCC(=O)*; X1 = O=C([C@@H]1CSCCN1[*:1])[*:2]; Hyp = O=C(O)[C@@H]1C[C@@H](O)CN1; aThr = C[C@H](O)[C@H](N)C(=O)O; Pip = O=C(O)[C@@H]1CCCCN1; 4Abz = Nc1ccc(C(=O)O)cc1; CO = O=C([*:1])[*:2]; X2 = Fc1cc(N*)ccc1Cl

Experiments:
S. aureus ΔClpP = experiment: Minimal inhibitory concentration, microbroth dilution; type: cell-based, Staphylococcus aureus; details: MIC; ClpP inactivated
How it was run: (§1)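 MICs were determined by CLSI broth microdilution, using two-fold compound dilutions from a final 200 μM and about 10^5 cfu/mL inoculum. Plates were incubated aerobically at 37 °C overnight. The MIC was read visually as the lowest concentration preventing growth.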

E. faecails = experiment: as above; type: cell-based; details: Enterococcus faecalis
How it was run: as §1

MRSA NRS70 = experiment: as above; type: cell-based; details: Staphylococcus aureus
How it was run: as §1

S. aureus ATCC 29213 = experiment: as above; type: cell-based; details: Staphylococcus aureus
How it was run: as §1

S. aureus USA 300 = experiment: as above; type: cell-based; details: Staphylococcus aureus
How it was run: as §1

[1] = Microsomal metabolic stability; type: in vitro ADME, mouse
Method: Compounds were initially prepared by dissolving them into DMSO at a final concentration of 10 mM. NADPH regenerating solutions A and B and mouse liver microsomes (CD-1) were obtained from BD Gentest (Woburn, Mass.). Ninety-six well deep well plates were obtained from MidWest Scientific Inc (Valley Park, Mo.).
Sample preparation for microsomal stability was modified from methods of Di, L., et al., Int J Pharm. 2005 Jun. 13; 297(1-2):110-9. A set of incubation times of 0, 15, 30, 60, 120, and 240 minutes were used. Mouse liver microsomal solutions were prepared by adding 58 μL of concentrated human or mouse liver microsomes (20 mg/mL protein concentration) to 1.756 mL of 0.1 M potassium phosphate buffer (pH 7.4) and 5 μL of 0.5 M EDTA to make a 0.6381 mg/mL (protein) microsomal solution. NADPH regenerating agent contained 113 μL of NADPH A, 23 μL of NADPH B, and 315 μL of 0.1 M potassium phosphate buffer (pH 7.4). The diluted test compound solutions (2 μL) were each added directly to a 1.79 mL of liver microsomal solution. This solution was mixed and 90 μL was transferred to 6 time points plates (each in triplicate wells). For the time 0 plate, 225 μL of cold acetonitrile with internal standard ([…] warfarin) was added to each well, followed by addition of NADPH regenerating agent (22.5 μL) and no incubation. For other five time points' plate, NADPH regenerating agent (22.5 μL) was added to each well to initiate the reaction. The plates were incubated at 37° C. for the required time, followed by quenching of the reaction by adding 225 μL of cold acetonitrile with internal standard (4 μg/ml warfarin). All of the plates were sealed and mixed well at 600 rpm for 10 minutes followed by centrifugation at 4000 rpm for 20 minutes. The supernatants (120 μL) were transferred to analytical plates for analysis by LCMS. LCMS conditions were described in the materials and instrumentation section above. The metabolic stability is evaluated via the half-life from least-squares fit of the multiple time points based on first-order kinetics.

[2] = MIC, read-out: Minimal Inhibitory Concentrations (μM) E. faecails
[3] = MIC, read-out: Minimal Inhibitory Concentrations (μM) MRSA NRS70
[4] = ATCC29213, MIC, read-out: Minimal Inhibitory Concentrations (μM) S. aureus ATCC 29213
[5] = USA300, MIC, read-out: Minimal Inhibitory Concentrations (μM) S. aureus USA 300
[6] = read-out: Minimal Inhibitory Concentrations (μM) E. faecails, MIC
[7] = read-out: Minimal Inhibitory Concentrations (μM) MRSA NRS70, MIC
[8] = ATCC29213, read-out: Minimal Inhibitory Concentrations (μM) S. aureus ATCC 29213, MIC
[9] = USA300, read-out: Minimal Inhibitory Concentrations (μM) S. aureus USA 300, MIC
[10] = microsomal metabolic stability half-life, mouse liver microsomes

Row | SMILES | Minimal Inhibitory Concentrations (μM) S. aureus ΔClpP (S. aureus ΔClpP) [µM] | MIC (E. faecails; [2]) [µM] | MIC (MRSA NRS70; [3]) [µM] | MIC (S. aureus ATCC 29213; [4]) [µM] | MIC (S. aureus USA 300; [5]) [µM] | Mouse ([1]; CD-1, mouse, pH 7.4) | MIC (E. faecails; [6]) [µM] | MIC (MRSA NRS70; [7]) [µM] | MIC (S. aureus ATCC 29213; [8]) [µM] | MIC (S. aureus USA 300; [9]) [µM] | Mouse [1, 10]
1 | Cc1cccc(C[C@H](NC(=O)Nc2ccc(Cl)cc2F)C(=O)N[C@@H]2C(=O)N3CCC[C@H]3C(=O)N3CCSC[C@H]3C(=O)N[C@@H](C)C(=O)N3C[C@H](C)C[C@H]3C(=O)O[C@H]2C)c1 [Compound 38, (S)-2-(3-(4-CHLORO-2-FLUOROPHENYL)UREIDO)-3-(M-TOLYL)-N-((6AS,12S,13S,15AS,17R,21S,23AR)-13,17,21-TRIMETHYL-6,11,15,20,23-PENTAOXOOCTADECAHYDRO-6H,11H,15H-DIPYRROLO[2,1-C:2′,1′-L][1,4]THIAZINO[3,4-I][1]OXA[4,7,10,13]TETRAAZACYCLOHEXADECIN-12-YL)PROPANAMIDE] ({NH(4-Cl-2-F-phenyl)-CO}-[Phe(3-Me)][aThr]P[X1]A[Pro(4R-Me)]; ester 2-C) | >20 | 0.078 (≈ 0.0657 µg/mL) | 0.039 (≈ 0.0329 µg/mL) | 0.039 (≈ 0.0329 µg/mL) | 0.078 (≈ 0.0657 µg/mL) | 1.25 ± .253 h |  |  |  |  | 
2 | Cc1ccc(NC(=O)N[C@@H](Cc2cccc(C)c2)C(=O)N[C@H]2COC(=O)[C@@H]3C[C@H](C)CN3C(=O)[C@H](C)NC(=O)[C@@H]3CCCCN3C(=O)[C@@H]3CCCN3C2=O)cc1 (stereo in doubt) [Compound 43, (S)—N-((2S,6S,8AS,14AS,20S,23AS)-2,6-DIMETHYL-5,8,14,19,23-PENTAOXOOCTADECAHYDRO-1H,5H,14H,19H-PYRIDO[2,1-I]DIPYRROLO[2,1-C:2′,1′-L][1]OXA[4,7,10,13]TETRAAZACYCLOHEXADECIN-20-YL)-3-(M-TOLYL)-2-(3-(P-TOLYL)UREIDO)PROPANAMIDE] | >20 |  |  |  |  |  | 2.5 (≈ 1.93 µg/mL) | 2.5 (≈ 1.93 µg/mL) | 2.5 (≈ 1.93 µg/mL) | 2.5 (≈ 1.93 µg/mL) | 3.57 ± 0.3 h
3 | Cc1cccc(C[C@H](NC(=O)Nc2ccc(Cl)cc2F)C(=O)N[C@@H]2C(=O)N3C[C@H](O)C[C@H]3C(=O)N3CCSC[C@H]3C(=O)N[C@@H](C)C(=O)N3C[C@H](C)C[C@H]3C(=O)O[C@H]2C)c1 [Compound 41, (S)-2-(3-(4-CHLORO-2-FLUOROPHENYL)UREIDO)-N-((6AS,8R,12S,13S,15AS,17R,21S,23AR)-8-HYDROXY-13,17,21-TRIMETHYL-6,11,15,20,23-PENTAOXOOCTADECAHYDRO-6H,11H,15H-DIPYRROLO[2,1-C:2′,1′-L][1,4]THIAZINO[3,4-I][1]OXA[4,7,10,13]TETRAAZACYCLOHEXADECIN-12-YL)-3-(M-TOLYL)PROPANAMIDE] ({NH(4-Cl-2-F-phenyl)-CO}-[Phe(3-Me)][aThr][Hyp][X1]A[Pro(4R-Me)]; ester 2-C) | >20 | 0.625 (≈ 0.536 µg/mL) | 0.156 (≈ 0.134 µg/mL) | 0.31 (≈ 0.266 µg/mL) | 0.31 (≈ 0.266 µg/mL) | 0.11 ± .113 h |  |  |  |  | 
4 | C[C@@H]1C[C@H]2C(=O)OC[C@H](NC(=O)[C@H](Cc3cc(F)cc(F)c3)NC(=O)Nc3ccc(Cl)cc3F)C(=O)N3CCC[C@H]3C(=O)N3CCN(C)C[C@H]3C(=O)N[C@@H](C)C(=O)N2C1 [Compound 34] ({NH(4-Cl-2-F-phenyl)-CO}-[Phe(3,5-F2)]SP[Piperazine(2S-CO,4-Me)]A[Pro(4R-Me)]; ester 2-C) | >20 | < 0.02 | 0.078 (≈ 0.0661 µg/mL) | 0.078 (≈ 0.0661 µg/mL) | 0.156 (≈ 0.132 µg/mL) | 1.18 ± .185 h |  |  |  |  | 
5 | Cc1ccc(NC(=O)N[C@@H](Cc2cccc(C)c2)C(=O)N[C@H]2COC(=O)[C@@H]3CCCN3C(=O)[C@H](C)NC(=O)[C@@H]3CCCCN3C(=O)[C@@H]3C[C@@H](O)CN3C2=O)cc1 [Compound 49, (S)—N-((6S,8AS,14AS,16R,20S,23AS)-16-HYDROXY-6-METHYL-5,8,14,19,23-PENTAOXOOCTADECAHYDRO-1H,5H,14H,19H-PYRIDO[2,1-I]DIPYRROLO[2,1-C:2′,1′-L][1]OXA[4,7,10,13]TETRAAZACYCLOHEXADECIN-20-YL)-3-(M-TOLYL)-2-(3-(P-TOLYL)UREIDO)PROPANAMIDE] | >20 |  |  |  |  |  |  |  |  |  | 4.37 ± .373 h
6 | Cc1cccc(C[C@H](NC(=O)Nc2ccc(Cl)c(F)c2)C(=O)N[C@@H]2C(=O)N3CCC[C@H]3C(=O)N3CCCC[C@H]3C(=O)N[C@@H](C)C(=O)N3C[C@H](C)C[C@H]3C(=O)O[C@H]2C)c1 [Compound 35, (S)-2-(3-(4-CHLORO-3-FLUOROPHENYL)UREIDO)-3-(M-TOLYL)-N-((2R,6S,8AS,14AS,20S,21S,23AS)-2,6,21-TRIMETHYL-5,8,14,19,23-PENTAOXOOCTADECAHYDRO-1H,5H,14H,19H-PYRIDO[2,1-I]DIPYRROLO[2,1-C:2′,1′-L][1]OXA[4,7,10,13]TETRAAZACYCLOHEXADECIN-20-YL)PROPANAMIDE] ({X2-CO}-[Phe(3-Me)][aThr]P[Pip]A[Pro(4R-Me)]; ester 2-C) | >20 | 1.25 (≈ 1.03 µg/mL) | 0.313 (≈ 0.258 µg/mL) | 0.625 (≈ 0.515 µg/mL) | 0.625 (≈ 0.515 µg/mL) | 1.54 ± .545 h |  |  |  |  | 
7 | CCOC(=O)c1ccc(NC(=O)N[C@@H](Cc2cccc(C)c2)C(=O)N[C@@H]2C(=O)N3C[C@H](O)C[C@H]3C(=O)N3CCCC[C@H]3C(=O)N[C@@H](C)C(=O)N3C[C@H](C)C[C@H]3C(=O)O[C@H]2C)cc1 [Compound 36, ETHYL 4-(3-((S)-1-(((2R,6S,8AS,14AS,16R,20S,21S,23AS)-16-HYDROXY-2,6,21-TRIMETHYL-5,8,14,19,23-PENTAOXOOCTADECAHYDRO-1H,5H,14H,19H-PYRIDO[2,1-I]DIPYRROLO[2,1-C:2′,1′-L][1]OXA[4,7,10,13]TETRAAZACYCLOHEXADECIN-20-YL)AMINO)-1-OXO-3-(M-TOLYL)PROPAN-2-YL)UREIDO)BENZOATE] ({OEt-4Abz-CO}-[Phe(3-Me)][aThr][Hyp][Pip]A[Pro(4R-Me)]; ester 2-C) | >20 |  |  |  |  |  | 1.25 (≈ 1.07 µg/mL) | 2.5 (≈ 2.15 µg/mL) | 1.25 (≈ 1.07 µg/mL) | 2.5 (≈ 2.15 µg/mL) | 11.23 ± 1.23 h
8 | Cc1cccc(C[C@H](NC(=O)Nc2ccc(Cl)cc2F)C(=O)N[C@@H]2C(=O)N3C[C@H](OC(=O)CCN(C)C)C[C@H]3C(=O)N3CCCC[C@H]3C(=O)N[C@@H](C)C(=O)N3C[C@H](C)C[C@H]3C(=O)O[C@H]2C)c1 [Compound 46, (2R,6S,8AS,14AS,16R,20S,21S,23AS)-20-((S)-2-(3-(4-CHLORO-2-FLUOROPHENYL)UREIDO)-3-(M-TOLYL)PROPANAMIDO)-2,6,21-TRIMETHYL-5,8,14,19,23-PENTAOXOOCTADECAHYDRO-1H,5H,14H,19H-PYRIDO[2,1-I]DIPYRROLO[2,1-C:2′,1′-L][1]OXA[4,7,10,13]TETRAAZACYCLOHEXADECIN-16-YL 3-(DIMETHYLAMINO)PROPANOATE] ({NH(4-Cl-2-F-phenyl)-CO}-[Phe(3-Me)][aThr][Hyp](Propanoyl(3-NMe2))[Pip]A[Pro(4R-Me)]; ester 2-C) | >20 | 0.156 (≈ 0.147 µg/mL) | 0.313 (≈ 0.294 µg/mL) | 0.313 (≈ 0.294 µg/mL) | 0.313 (≈ 0.294 µg/mL) | 0.22 ± 0.0 h |  |  |  |  | 
